# Data reported in patent publication US20120245137A1 (Zalicus Pharmaceuticals Ltd., priority 2009, published 2012).
# Molecular target: human α1G T-type channels (Homo sapiens, UniProt O43497)
# Assay: T-type calcium channel block, whole cell patch clamp, α1G
# Assay type: cell-based
# Conditions: HEK cells stably expressing human α1G; mainly non-inactivated protocol; values above 10,000 nM represented as 10000
# Protocol: T-type calcium channel blocking activity was assayed in human embryonic kidneycells, HEK 293 (Invitrogen), stably transfected with the T-type calcium channel subunits. Briefly, cells were cultured in Dulbecco's modified eagle medium (DMEM) supplemented with 10% fetal bovine serum, 200 U/ml penicillin, and 0.2 mg/mL streptomycin at 37° C. with 5% CO2. At 85% confluency, cells were split with 0.25% trypsin/1 mM EDTA and plated at 10% confluency on glass coverslips. At 12 hours, the medium was replaced, and the cells stably transfected using a standard calcium phosphate protocol and the appropriate calcium channel cDNA's. Fresh DMEM was supplied, and the cells transferred to 28° C./5% CO2.
# Standard patch-clamp techniques were employed to identify blockers of T-type currents. Briefly, previously described HEK cell lines stably expressing human α1G, α1H, and α1I T-type channels were used for all the recordings (passage #: 4-20, 37° C., 5% CO2). Whole cell patch clamp experiments were performed using an Axopatch 200B amplifier (Axon Instruments, Burlingame, Calif.) linked to a personal computer equipped with pCLAMP software. Data were analyzed using Clampfit (Axon Instruments) and SigmaPlot 4.0 (Jandel Scientific). To obtain T-type currents, plastic dishes containing semi-confluent cells were positioned on the stage of a ZEISS AXIOVERT S100 microscope after replacing the culture medium with external solution (Table 2). Whole-cell patches were obtained using pipettes (borosilicate glass with filament, O.D.: 1.5 mm, I.D.: 0.86 mm, 10 cm length), fabricated on a SUTTER P-97 puller with resistance values of ˜5 MΩ (Table 3).
# T-type currents were reliably obtained by using two voltage protocols: • “non-inactivating,” and • “inactivation.”
# Test compounds were dissolved in external solution, 0.1-0.01% DMSO. After ˜10 minutes rest, they were applied by gravity close to the cell using a WPI microfil tubing. The “non-inactivated” pre-pulse was used to examine the resting block of a compound. The “inactivated” protocol was employed to study voltage-dependent block.
row,IC50,SMILES
1,0.65 µM,"CN(CCC(C)(C)S(=O)(=O)c1cccc(C(F)(F)F)c1)C(=O)c1cc(C(F)(F)F)nn1C [Compound 509, N,1-dimethyl-N-(3-methyl-3-(3-(trifluoromethyl)phenylsulfonyl)butyl)-3-(trifluoromethyl)-1H-pyrazole-5-carboxamide]"
2,0.96 µM,"CN(CCC(C)(C)S(=O)(=O)c1cccc(C(F)(F)F)c1)C(=O)c1ccc(C(F)(F)F)nc1 [Compound 511, N-methyl-N-(3-methyl-3-(3-(trifluoromethyl)phenylsulfonyl)butyl)-6-(trifluoromethyl)nicotinamide]"
3,0.83 µM,"CC(C)(CCNC(=O)c1ccnc(C(F)(F)F)n1)S(=O)(=O)c1cc(F)cc(C(F)(F)F)c1 [Compound 534, N-(3-(3-fluoro-5-(trifluoromethyl)phenylsulfonyl)-3-methylbutyl)-2-(trifluoromethyl)pyrimidine-4-carboxamide]"
4,0.85 µM,"CN(CCC(C)(C)S(=O)(=O)c1cccc(C(F)(F)F)c1)C(=O)c1ccc(C(F)(F)F)cc1S(C)(=O)=O [Compound 508, N-methyl-N-(3-methyl-3-(3-(trifluoromethyl)phenylsulfonyl)butyl)-2-(methylsulfonyl)-4-(trifluoromethyl)benzamide]"
5,0.68 µM,CC(C)(CNS(=O)(=O)c1cccc2nonc12)S(=O)(=O)c1cccc(C(F)(F)F)c1 [Compound 493]
6,0.71 µM,"Cc1cccc(C(=O)NCC(C)(C)S(=O)(=O)c2cccc(C(F)(F)F)c2)n1 [Compound 485, 6-methyl-N-(2-methyl-2-(3-(trifluoromethyl)phenylsulfonyl)propyl) picolinamide]"

# Molecular target: N-type calcium channel subunits (α1B, α2δ, and β3a) (Homo sapiens, UniProt Q00975)
# Assay: Block of Cav2.2 channel, whole cell voltage clamp, manual and PatchXpress
# Assay type: cell-based
# Conditions: Table 5; table follows Assay Example 3 (whole cell voltage clamp / PatchXpress); assay not given
# Outline: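 Percent block taken as current amplitude ratio with versus without compound, applied in rising doses; IC50 fitted where one cell received multiple doses. Protocol: 50 ms pulses to +20 mV at 0.067 Hz from […] or −90 mV holding; P/n leak subtraction, no junction-potential correction; manual and PatchXpress recordings.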
# N-type calcium channel subunits (α1B, α2δ, and β3a), sequence (Q00975 whole entry): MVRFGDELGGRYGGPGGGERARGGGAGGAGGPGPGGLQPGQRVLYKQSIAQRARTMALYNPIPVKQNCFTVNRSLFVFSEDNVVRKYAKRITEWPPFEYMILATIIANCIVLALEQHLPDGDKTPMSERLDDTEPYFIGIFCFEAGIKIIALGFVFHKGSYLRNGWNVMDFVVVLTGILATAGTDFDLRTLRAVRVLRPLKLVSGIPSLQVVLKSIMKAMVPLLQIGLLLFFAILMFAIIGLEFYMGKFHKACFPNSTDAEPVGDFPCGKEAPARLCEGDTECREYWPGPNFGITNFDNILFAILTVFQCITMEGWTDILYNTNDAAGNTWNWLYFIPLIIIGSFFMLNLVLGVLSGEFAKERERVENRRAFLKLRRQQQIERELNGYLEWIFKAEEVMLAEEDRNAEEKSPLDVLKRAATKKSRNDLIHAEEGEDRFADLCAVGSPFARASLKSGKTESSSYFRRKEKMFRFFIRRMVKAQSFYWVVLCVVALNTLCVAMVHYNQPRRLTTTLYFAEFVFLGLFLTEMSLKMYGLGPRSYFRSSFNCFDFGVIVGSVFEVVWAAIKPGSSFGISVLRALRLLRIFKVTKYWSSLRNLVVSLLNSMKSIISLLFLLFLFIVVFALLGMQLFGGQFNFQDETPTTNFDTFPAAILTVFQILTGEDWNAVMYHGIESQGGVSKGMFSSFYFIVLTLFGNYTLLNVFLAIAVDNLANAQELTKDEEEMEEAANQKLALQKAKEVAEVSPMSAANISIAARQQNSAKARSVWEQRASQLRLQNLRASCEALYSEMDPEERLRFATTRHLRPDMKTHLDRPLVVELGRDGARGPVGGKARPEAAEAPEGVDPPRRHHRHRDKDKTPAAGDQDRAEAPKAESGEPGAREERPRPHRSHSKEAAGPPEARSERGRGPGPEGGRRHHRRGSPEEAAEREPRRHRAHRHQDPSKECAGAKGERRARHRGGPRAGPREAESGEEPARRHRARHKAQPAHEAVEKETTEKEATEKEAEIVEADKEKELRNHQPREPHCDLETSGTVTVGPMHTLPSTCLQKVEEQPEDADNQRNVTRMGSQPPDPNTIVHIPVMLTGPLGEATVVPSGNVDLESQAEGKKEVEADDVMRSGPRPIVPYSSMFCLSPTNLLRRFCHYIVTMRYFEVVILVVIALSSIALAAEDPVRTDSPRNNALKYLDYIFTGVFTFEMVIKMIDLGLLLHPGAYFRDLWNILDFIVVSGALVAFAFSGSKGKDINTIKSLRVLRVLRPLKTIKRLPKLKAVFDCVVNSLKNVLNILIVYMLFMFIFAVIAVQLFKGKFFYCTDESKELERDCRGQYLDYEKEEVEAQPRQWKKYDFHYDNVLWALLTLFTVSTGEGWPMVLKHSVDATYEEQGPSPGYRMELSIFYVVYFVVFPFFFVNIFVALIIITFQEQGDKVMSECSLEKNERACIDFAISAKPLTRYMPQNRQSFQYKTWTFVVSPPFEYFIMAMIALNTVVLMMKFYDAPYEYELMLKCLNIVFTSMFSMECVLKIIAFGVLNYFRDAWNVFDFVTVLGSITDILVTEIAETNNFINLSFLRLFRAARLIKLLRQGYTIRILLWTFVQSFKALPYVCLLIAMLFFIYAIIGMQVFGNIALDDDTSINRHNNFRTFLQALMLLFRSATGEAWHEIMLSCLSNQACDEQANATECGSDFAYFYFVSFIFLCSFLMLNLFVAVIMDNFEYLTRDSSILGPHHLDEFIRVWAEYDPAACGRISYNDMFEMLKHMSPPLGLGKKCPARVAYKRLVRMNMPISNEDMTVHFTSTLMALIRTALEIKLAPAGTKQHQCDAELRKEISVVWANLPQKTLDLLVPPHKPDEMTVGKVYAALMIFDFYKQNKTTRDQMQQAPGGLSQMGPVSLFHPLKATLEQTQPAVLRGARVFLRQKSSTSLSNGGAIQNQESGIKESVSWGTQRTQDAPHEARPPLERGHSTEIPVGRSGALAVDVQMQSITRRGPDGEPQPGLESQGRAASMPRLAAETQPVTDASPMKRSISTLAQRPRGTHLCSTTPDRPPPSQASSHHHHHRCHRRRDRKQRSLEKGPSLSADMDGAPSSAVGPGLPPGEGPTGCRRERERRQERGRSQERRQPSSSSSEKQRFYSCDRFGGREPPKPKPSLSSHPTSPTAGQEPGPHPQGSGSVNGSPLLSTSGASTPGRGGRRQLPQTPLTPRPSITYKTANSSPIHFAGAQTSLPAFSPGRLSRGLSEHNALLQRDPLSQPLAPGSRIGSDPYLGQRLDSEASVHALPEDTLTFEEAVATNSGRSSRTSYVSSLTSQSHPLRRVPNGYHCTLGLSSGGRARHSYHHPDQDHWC
# N-type calcium channel subunits (α1B, α2δ, and β3a), sequence (P54289 25-1103 partner): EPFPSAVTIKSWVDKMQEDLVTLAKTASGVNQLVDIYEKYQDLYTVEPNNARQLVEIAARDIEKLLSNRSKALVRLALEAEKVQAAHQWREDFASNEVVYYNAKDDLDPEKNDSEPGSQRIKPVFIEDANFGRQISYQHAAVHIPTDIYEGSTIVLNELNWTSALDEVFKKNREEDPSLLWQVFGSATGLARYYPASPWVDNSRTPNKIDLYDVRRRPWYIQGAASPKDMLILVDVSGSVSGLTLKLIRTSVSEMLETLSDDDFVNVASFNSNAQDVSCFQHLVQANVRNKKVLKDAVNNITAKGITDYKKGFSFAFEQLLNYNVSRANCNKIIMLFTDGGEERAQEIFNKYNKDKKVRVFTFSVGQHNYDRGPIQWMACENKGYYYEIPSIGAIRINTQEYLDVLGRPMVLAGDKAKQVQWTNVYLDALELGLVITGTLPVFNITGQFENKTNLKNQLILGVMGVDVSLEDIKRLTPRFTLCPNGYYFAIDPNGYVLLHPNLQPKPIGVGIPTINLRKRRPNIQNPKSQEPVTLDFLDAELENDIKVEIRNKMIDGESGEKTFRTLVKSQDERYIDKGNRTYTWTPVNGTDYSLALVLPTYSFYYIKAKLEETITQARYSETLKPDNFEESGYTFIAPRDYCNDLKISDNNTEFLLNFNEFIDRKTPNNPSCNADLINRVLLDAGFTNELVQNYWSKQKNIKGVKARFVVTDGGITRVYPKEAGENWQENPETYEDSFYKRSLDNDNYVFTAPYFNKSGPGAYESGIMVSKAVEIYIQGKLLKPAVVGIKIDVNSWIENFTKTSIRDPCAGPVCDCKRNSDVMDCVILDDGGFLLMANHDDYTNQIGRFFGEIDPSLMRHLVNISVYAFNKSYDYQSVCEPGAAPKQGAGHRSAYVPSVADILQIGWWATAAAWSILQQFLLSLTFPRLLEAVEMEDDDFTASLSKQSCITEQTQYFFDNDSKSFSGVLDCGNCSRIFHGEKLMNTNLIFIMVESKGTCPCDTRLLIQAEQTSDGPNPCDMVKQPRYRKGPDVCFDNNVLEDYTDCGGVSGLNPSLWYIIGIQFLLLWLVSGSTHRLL
# N-type calcium channel subunits (α1B, α2δ, and β3a), sequence (P54284 whole entry partner): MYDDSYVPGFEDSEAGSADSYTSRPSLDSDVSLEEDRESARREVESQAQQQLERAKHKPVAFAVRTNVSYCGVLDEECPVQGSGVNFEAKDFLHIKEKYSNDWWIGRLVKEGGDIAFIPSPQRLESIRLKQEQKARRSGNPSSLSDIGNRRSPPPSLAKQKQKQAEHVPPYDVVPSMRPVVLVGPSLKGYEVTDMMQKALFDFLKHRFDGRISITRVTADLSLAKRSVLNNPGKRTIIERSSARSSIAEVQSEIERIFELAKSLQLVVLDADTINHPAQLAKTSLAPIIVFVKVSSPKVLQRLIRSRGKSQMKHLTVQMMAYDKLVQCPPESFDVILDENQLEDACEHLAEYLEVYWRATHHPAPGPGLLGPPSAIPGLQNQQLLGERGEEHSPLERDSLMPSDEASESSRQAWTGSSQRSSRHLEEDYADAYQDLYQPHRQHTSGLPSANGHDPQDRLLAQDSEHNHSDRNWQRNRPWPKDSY
row,IC50,SMILES
1,730 nM,"O=C(NC[C@H]1C[C@H](S(=O)(=O)c2cc(F)cc(C(F)(F)F)c2)C1)c1ccc(F)c(Cl)c1 [Compound 391, 3-chloro-4-fluoro-N-(((1R,3R)-3-(3-fluoro-5-(trifluoromethyl)phenylsulfonyl)cyclobutyl)rnethyl)benzamide]"
2,580 nM,"O=C(N[C@H]1CC[C@@](F)(S(=O)(=O)c2cccc(C(F)(F)F)c2)CC1)C1CCCCN1 (stereo partly drawn) [Compound 283, N-((1S,4S)-4-fluoro-4-(3-(trifluorornethyl)phenylsulfonyl)cyclohexyl) piperidine-2-carboxamide]"
3,170 nM,"O=C(N[C@H]1CC[C@@H](S(=O)(=O)c2cccc(C(F)(F)F)c2)CC1)c1cc(F)cc(Cl)c1 [Compound 40, 3-chloro-5-fluoro-N-((1S,4S)-4-(3-(trifluoromethyl)phenylsulfonyl)cyclohexyl)benzamide]"
4,740 nM,"O=C(CN[C@H]1CC[C@H](S(=O)(=O)c2cccc(C(F)(F)F)c2)CC1)Nc1ccccn1 [Compound 77, N-(pyridin-2-yl)-2-((1R,4R)-4-(3-(trifluoromethyl)phenylsulfonyl)cyclohexylamino)acetamide]"
5,480 nM,"O=C(N[C@H]1CC[C@H](CS(=O)(=O)c2cccc(C(F)(F)F)c2)CC1)c1ccc(OCC(F)(F)F)nc1 [Compound 171, 6-(2,2,2-trifluoroethoxy)-N-((1R,4R)-4-((3-(trifluoromethyl)phenylsulfonyl)methyl)cyclohexyl)nicotinamide]"
6,400 nM,"CC(C)([C@H]1C[C@H](NC(=O)c2ccc(C(F)(F)F)cc2S(C)(=O)=O)C1)S(=O)(=O)c1cccc(C(F)(F)F)c1 [Compound 439, 2-(methylsulfonyl)-4-(trifluoromethyl)-N-((1R,3R)-3-(2-(3-(tritluoromethyl)phenylsulfonyl)propan-2-yl)cyclobutyl)benzamide]"
7,1020 nM,"COc1cc(F)cc(C(=O)NC[C@]2(O)CC[C@@H](S(=O)(=O)c3cccc(C(F)(F)F)c3)CC2)c1 [Compound 229, 3-fluoro-N-(((1S,4S)-1-hydroxy-4-(3-(trifluoromethyl)phenylsulfonyl)cyclohexyl)methyl)-5-methoxybenzamide]"
8,2060 nM,"O=C(N[C@H]1CC[C@H](CS(=O)(=O)c2cccc(C(F)(F)F)c2)CC1)c1cncc(C(F)(F)F)c1 [Compound 177, 5-(trifluoromethyl)-N-((1R,4R)-4-((3-(trifluoromethyl)phenylsulfonyl)tmehyl)cyclohexyl)nicotinamide]"
9,3150 nM,"O=C(N[C@H]1CC[C@@H](S(=O)(=O)c2cccc(C(F)(F)F)c2)CC1)c1cnccc1C(F)(F)F [Compound 195, 4-(trifluoromethyl)-N-((1S,4S)-4-(3-(trifluoromethyl)phenylsulfonyl)cyclohexyl)nicotinamide]"
10,1860 nM,"O=C(N[C@H]1CC[C@@H](S(=O)(=O)c2cccc(C(F)(F)F)c2)CC1)c1ccnc(F)c1 [Compound 201, 2-fluoro-N-((1S,4S)-4-(3-(trifluoromethyl)phenylsulfonyl)cyclohexyl)isonicotinamide]"
11,1540 nM,"O=C(Nc1ccc(Oc2ccc(F)cc2)cc1)[C@H]1C[C@H](S(=O)(=O)c2cccc(C(F)(F)F)c2)C1 [Compound 406, (1R,3R)-N-(4-(4-fluorophenoxy)phenyl)-3-(3-(trifluoromethyl)phenylsulfonyl)cyclobutane carboxamide]"
12,810 nM,"O=S(=O)(c1cccc(C(F)(F)F)c1)[C@H]1C[C@@H](c2c[nH]c(-c3ccc(C(F)(F)F)nc3)n2)C1 [Compound 446, 2-(trifluoromethyl)-5-(4-((1S,3S)-3-(3-(trifluoromethyl)phenylsulfonyl)cyclobutyl)-1H-imidazoI-2-yl)pyridine]"
13,1070 nM,"O=C(NC[C@H]1C[C@H](S(=O)(=O)c2cc(F)cc(C(F)(F)F)c2)C1)c1cn2cc(C(F)(F)F)ccc2n1 [Compound 393, N-(((1R,3R)-3-(3-fluoro-5-(trifluoromethyl)phenylsulfonyl)cyclobutyl)methyl)-6-(trifluoromethyl) imidazo[1,2-a]pyridine-2-carboxamide]"
14,1940 nM,"O=C(CCC(F)(F)F)NC1CCC(S(=O)(=O)c2cccc(C(F)(F)F)c2)CC1 (stereo not drawn) [Compound 12, 4,4,4-trifluoro-N-(4-(3-(trifluoromethyl)phenylsulfonyl)cyclohexyl)butanamide]"
15,200 nM,"O=S(=O)(c1cccc(C(F)(F)F)c1)[C@H]1C[C@H](c2c[nH]c(-c3ccc(C(F)(F)F)nc3)n2)C1 [Compound 445, 2-(trifluoromethyl)-5-(4-((1R,3R)-3-(3-(trifluoromethyl)phenylsulfonyl)cyclobutyl)-1H-imidazol-2-yl)pyridine]"
16,740 nM,"O=C(NC[C@H]1C[C@H](S(=O)(=O)c2cc(F)cc(C(F)(F)F)c2)C1)c1ccc(OC(F)(F)F)cc1 [Compound 398, N-(((1R,3R)-3-(3-fluoro-5-(trifluoromethyl)phenylsulfonyl)cyclobutyl)methyl)-4-(trifluoromethoxy)benzamide]"
17,720 nM,"CC(C)([C@H]1C[C@H](NC(=O)c2cnc(C(F)(F)F)nc2)C1)S(=O)(=O)c1cccc(C(F)(F)F)c1 [Compound 437, 2-(trifluoromethyl)-N-((1R,3R)-3-(2-(3-(trifluoromethyl)phenylsulfonyl)propan-2-yl)cyclobutyl)pyrimidine-5-carboxamide]"
18,1630 nM,"Cc1cc(C(=O)N[C@H]2CC[C@H](S(=O)(=O)c3cccc(C(F)(F)F)c3)CC2)c(C(F)(F)F)o1 [Compound 185, 5-methyl-2-(trifluoromethyl)-N-((1R,4R)-4-(3-(trifluoromethyl)phenylsulfonyl)cyclohexyl)furan-3-carboxamide]"
